A short description of data set [1]: Release of loaded protein or peptide from coated ET tubes in PBS. Type of data set: physicochemical. The procedure:
Release Quantification. Release of loaded protein or peptide from ET tubes was achieved from quartered tube segments in PBS at 37° C. while shaking at 100 rpm. FITC-BSA elution and PLGA degradation samples were obtained by completely removing the supernatant and adding fresh PBS to each well. […] PLGA degradation was quantified via EnzyFluo L-Lactate Assay Kit (Bioassay Systems). Peptide release was quantified via Pierce Quantitative Fluorometric Peptide Assay (Thermo Scientific).

Another data set deals with S. epidermidis. The data set is described as follows: Minimum inhibitory concentration (MIC) of Lasio. On the set-up: unit not given here. Type of data set: cell-based, Staphylococcus epidermidis. The conditions noted are these: data not shown. As to the method: (§1) Bacteria Culture. Staphylococcus epidermidis (Winslow and Winslow) Evans (ATCC 13990) was cultured in nutrient broth aerobically at 37° C. Streptococcus pneumoniae (Klein) Chester (NCTC 7465; ATCC 33400) was cultured in Brain Heart Infusion Broth and plated on Trypticase soy agar with 5% defibrinated sheep blood (Colorado Serum Co.) aerobically (5% CO2) at 37° C.
(§2) Antibacterial Activity Assay.

The subject of data set [2] is Staphylococcus epidermidis. The data set is described as follows: Adherent bacterial viability on ET tubes (colony counts). The data set is classed as cell-based. The conditions noted are these: 24 hours, 1×MIC/PLGA vs uncoated, 0.5×MIC/PLGA p<0.0001, free peptide vs 1×MIC/PLGA p=0.0015. As to the method:
as §1, §2

Data set [3] relates to patient derived laryngotracheal fibroblasts.
Procedure: Peptide/PLGA coated tubes and controls were first submerged in Fluorobrite DMEM supplemented with 10% FBS, 2% Anti-Anti, 1% MEM NEAA, and incubated for 24 hours at 37° ° C. while shaking at 100 rpm to achieve release. Simultaneously, laryngotracheal fibroblasts were seeded at 7,000 cells/well in 48 well plates and allowed to adhere overnight in a culture atmosphere at 37° C., 95% relative humidity, and 5% CO2. Cell media was replaced with appropriate tube releasate and incubated for 24 hours in the culture atmosphere. Invitrogen AlamarBlue HS Cell Viability Reagent (ThermoFisher Scientific) was used to quantify viability.
Data set [4] deals with Staphylococcus epidermidis. The data set is described as follows: Crystal violet biofilm assay on ET tubes. The conditions noted are these: 24 hours, 1×MIC/PLGA vs uncoated, 0.5×MIC/PLGA, free peptide vs 1×MIC/PLGA p<0.0001. Type of data set: cell-based. As to the method:
as §1, §2

No end group written: not given here.

For orientation: viability means a per cent measure of how many cells are alive, often set against a control.

Turning to A4K14-citropin 1.1, in data set [1] (mouse sized tube loaded with 17.04 μg peptide, over 9 days), the linear release rate is 0.397 µg/day. Besides, in data set [1] (mouse sized tube, by day 9), the encapsulated peptide released is listed as around 80%.
Regarding “VNWKKILGKIIKVVK-NH2 (C-terminus assumed) [Lasio, Lasioglossin-III]”, the viability was determined as 62.3%. Also, in data set [1] (from PLGA coated ET tubes, PBS at 37° C. shaking at 100 rpm, after initial burst release), the linear release is 0.28 µg/day. This substance also came in with a minimum inhibitory concentration in the data set on S. epidermidis of 1.25. Also, the “viability of adherent bacteria” value in data set [2] was “inhibited the viability of adherent bacteria”. The “cytotoxicity toward human patient-derived laryngotracheal fibroblasts” value in data set [3] was “not cytotoxic”. For the same substance, in data set [4], the “adherent bacterial populations (crystal violet biofilm assay)” value is given as “significant reduction in adherent bacteria”.

Values taken from patent US20240189490A1, “ANTIMICROBIAL ELUTING AIRWAY DEVICES” (priority 2021, published 2024).
